# According to PMC3740399, “Carfilzomib in multiple myeloma patients with renal impairment: pharmacokinetics and safety” (Leukemia, 2013):
# Legend:
# [1] = Safety: treatment-emergent adverse events (CTCAE Version 3.0); type: in vivo, human; conditions: three patients of 50
# Procedure: (§1) All patients who received at least one dose of carfilzomib were included in the safety population. Incidence, severity and duration of AEs, including all serious AEs and those considered to be treatment related, and shifts to or from abnormal relative to baseline in key laboratory parameters were categorized according to the National Cancer Institute's Common Terminology Criteria for Adverse Events (CTCAE) Version 3.0.[16] […] ECGs were performed in most patients to satisfy regulatory requirements, but were not required by the study protocol.
# [2] = parameters: species or system human; conditions: in vivo
# Procedure: as §1
# [3] = test system: relapsed and/or refractory multiple myeloma; experiment: Efficacy: best response (IMWG criteria with EBMT minimal response); type: in vivo, human; conditions: for Overall response rate: PR or better
# Procedure: Patients who received at least 1 cycle of carfilzomib and had at least one post-baseline assessment for disease response were included in the efficacy analysis. Each evaluable patient's best response to treatment over the course of the study was evaluated by the investigator and sponsor using the International Myeloma Working Group Uniform Response Criteria, modified to include minimal response defined per the European Group for Blood and Marrow Transplantation.[17], [18] Responses assessed by the investigators at the end of the study are reported here. The overall response rate was defined as the proportion of PR or better responses, and the 95% Clopper-Pearson exact binomial CI was calculated. The duration of response was calculated as the time from the first evidence of a PR or better until confirmation of disease progression. Median time to progression and progression-free survival were assessed among all patients with >stable disease (s.d.). For progression-free survival, deaths due to causes other than disease progression were censored.
# [4] = in vivo
# Procedure: Carfilzomib was administered by IV infusion over 2–10 min on days 1, 2, 8, 9, 15 and 16 of a 28-day cycle for up to 12 cycles. The dose of carfilzomib in Cycle 1 was 15 mg/m^2. If this dose was tolerated, it was increased to 20 mg/m^2 at Cycle 2, and to 27 mg/m^2 at Cycle 3 and for all subsequent cycles as tolerated.
# Blood for plasma PK analysis was collected on days 1 and 15 of Cycle 1, and on day 15 of Cycle 2, before dosing (t=0), at the end of dosing, and at 5, 15 and 30 min and 1, 1.5, 2, 4, 6 and 24 h after dosing; urine samples were collected cumulatively over 0–5 h and 5–24 h on days 1 and 15 of Cycle 1 following administration of carfilzomib to determine carfilzomib concentrations. Carfilzomib concentrations were determined using validated liquid chromatography tandem mass spectrometry (LC MS/MS) methods with a calibration range of 0.300–300 ng/ml for plasma samples and 4.0–2000 ng/ml for urine samples. Plasma concentration of carfilzomib versus time was plotted on days 1 and 15 in Cycle 1, and PK parameters were calculated using a non-compartmental constant infusion method using WinNonlin (Pharsight, Sunnyvale, CA, USA). To determine whether renal impairment affected the PK of carfilzomib, the relationship between renal function status and relevant PK parameters was evaluated. Statistical comparison (analysis of variance) of the ln-transformed dose-adjusted PK parameters was also performed between patients with normal renal function and each group of patients with renal impairment. For these parameters, 90% confidence intervals (CI) were calculated for the ratios between least squares of the mean (LSM) for each group versus the normal renal function group (Group 1). […] The primary PK parameters—apparent plasma clearance, dose-normalized AUCinf (total exposure), and the dose-normalized Cmax on day 1 and day 15 of Cycle 1—were also estimated as a function of CrCl by linear regression using a mixed-effects model (Y=β0+β1 × CrCl+β2 × Age+β3 × weight, where Y=PK parameter, β0 = intercept, and β1, β2 and β3 are slope parameters associated with CrCl, age and weight, respectively).
# [5] = All patients, n=28, patients who received dexamethasone ⩾20 mg before carfilzomib doses
# [6] = All patients, n=47, all patients with response assessment
# [7] = Group 1 (normal renal function), n=7, patients who received dexamethasone ⩾20 mg before carfilzomib doses
# [8] = Group 1 (normal renal function), n=11, all patients with response assessment
# [9] = Group 2 (mild impairment), n=8, patients who received dexamethasone ⩾20 mg before carfilzomib doses
# [10] = Group 2 (mild impairment), n=11, all patients with response assessment
# [11] = Group 3 (moderate impairment), n=4, patients who received dexamethasone ⩾20 mg before carfilzomib doses
# [12] = Group 3 (moderate impairment), n=9, all patients with response assessment
# [13] = Group 4 (severe impairment), n=5, patients who received dexamethasone ⩾20 mg before carfilzomib doses
# [14] = Group 4 (severe impairment), n=8, all patients with response assessment
# [15] = Group 5 (chronic dialysis), n=4, patients who received dexamethasone ⩾20 mg before carfilzomib doses
# [16] = Group 5 (chronic dialysis), n=8, all patients with response assessment
structure (smiles),measurement,setting,value
CC(C)C[C@H](NC(=O)[C@H](CCc1ccccc1)NC(=O)CN1CCOCC1)C(=O)N[C@@H](Cc1ccccc1)C(=O)N[C@@H](CC(C)C)C(=O)[C@@]1(C)CO1 [carfilzomib],Serious AE influenza,[1],6.0%
same,"ECG effects on heart rate, atrioventricular conduction, cardiac depolarization (QT, PR, QRS intervals)",[2],no clinically relevant effects
same,Complete response,[3]; [5],0 n (%)
same,Minimal response,[3]; [5],3 (10.7) n (%)
same,Progressive disease,[3]; [5],5 (17.9) n (%)
same,Stable disease,[3]; [5],10 (35.7) n (%)
same,Very good PR,[3]; [5],0 n (%)
same,Overall response rate,"[3]; All patients, n=47",12 (25.5) n (%)
same,Complete response,[3]; [6],0 n (%)
same,Progressive disease,[3]; [6],10 (21.3) n (%)
same,Stable disease,[3]; [6],21 (44.7) n (%)
same,Very good PR,[3]; [6],0 n (%)
same,"Duration of response, median (95% CI)","[3]; All patients, NE, not estimated due to censoring",7.9 months
same,Complete response,[3]; [7],0 n (%)
same,Minimal response,[3]; [7],1 n (%)
same,Progressive disease,[3]; [7],0 n (%)
same,Stable disease,[3]; [7],3 (42.9) n (%)
same,Very good PR,[3]; [7],0 n (%)
same,Minimal response,[3]; [8],1 (9.1) n (%)
same,Progressive disease,[3]; [8],1 (9.1) n (%)
same,"Duration of response, median (95% CI)","[3]; Group 1 (normal renal function), NE, not estimated due to censoring",NE (2.0–NE)
same,Complete response,[3]; [9],0 n (%)
same,Minimal response,[3]; [9],1 (12.5) n (%)
same,Progressive disease,[3]; [9],3 (37.5) n (%)
same,Stable disease,[3]; [9],1 (12.5) n (%)
same,Very good PR,[3]; [9],0 n (%)
same,Overall response rate,"[3]; Group 2 (mild impairment), n=11",3 (27.3) n (%)
same,Complete response,[3]; [10],0 n (%)
same,Minimal response,[3]; [10],1 (9.1) n (%)
same,Stable disease,[3]; [10],3 (27.3) n (%)
same,Very good PR,[3]; [10],0 n (%)
same,"Duration of response, median (95% CI)","[3]; Group 2 (mild impairment), NE, not estimated due to censoring",NE (4.2–NE)
same,Complete response,[3]; [11],0 n (%)
same,Minimal response,[3]; [11],0 n (%)
same,Progressive disease,[3]; [11],0 n (%)
same,Stable disease,[3]; [11],3 (75.0) n (%)
same,Very good PR,[3]; [11],0 n (%)
same,Overall response rate,"[3]; Group 3 (moderate impairment), n=9",2 (22.2) n (%)
same,Complete response,[3]; [12],0 n (%)
same,Minimal response,[3]; [12],0 n (%)
same,Progressive disease,[3]; [12],3 (33.3) n (%)
same,Stable disease,[3]; [12],4 (44.4) n (%)
same,Very good PR,[3]; [12],0 n (%)
same,"Duration of response, median (95% CI)","[3]; Group 3 (moderate impairment), NE, not estimated due to censoring",NE (2.3–NE)
same,Complete response,[3]; [13],0 n (%)
same,Minimal response,[3]; [13],1 (20.0) n (%)
same,Progressive disease,[3]; [13],2 (40.0) n (%)
same,Stable disease,[3]; [13],2 (40.0) n (%)
same,Very good PR,[3]; [13],0 n (%)
same,Overall response rate,"[3]; Group 4 (severe impairment), n=8",2 (25.0) n (%)
same,Complete response,[3]; [14],0 n (%)
same,Minimal response,[3]; [14],1 (12.5) n (%)
same,Progressive disease,[3]; [14],2 (25.0) n (%)
same,Stable disease,[3]; [14],3 (37.5) n (%)
same,Very good PR,[3]; [14],0 n (%)
same,"Duration of response, median (95% CI)","[3]; Group 4 (severe impairment), NE, not estimated due to censoring",NE (7.9–NE)
same,"Duration of response, median (95% CI)",[3]; Group 5 (chronic dialysis),7.9 (6.5–8.5) months
same,Complete response,[3]; [15],0 n (%)
same,Minimal response,[3]; [15],0 n (%)
same,Progressive disease,[3]; [15],0 n (%)
same,Stable disease,[3]; [15],1 (25.0) n (%)
same,Very good PR,[3]; [15],0 n (%)
same,Overall response rate,"[3]; Group 5 (chronic dialysis), n=8",3 (37.5) n (%)
same,Complete response,[3]; [16],0 n (%)
same,Minimal response,[3]; [16],0 n (%)
same,Progressive disease,[3]; [16],0 n (%)
same,Stable disease,[3]; [16],4 (50.0) n (%)
same,Very good PR,[3]; [16],0 n (%)
same,Response improved to PR after the addition of dexamethasone,[3]; nine of 28 patients who received dexamethasone before each carfilzomib dose after Cycle 2,32.1%
same,Slope (95% CI) of linear regression of AUCinf as a function of creatinine clearance,[4],"0.012 (−0.030, 0.054)"
same,Slope (95% CI) of linear regression of AUClast (h·ng/ml) as a function of creatinine clearance,[4],"0.008 (−0.031, 0.048)"
same,Slope (95% CI) of linear regression of Cmax (ng/ml) as a function of creatinine clearance,[4],"0.225 (−0.242, 0.692)"
same,Slope (95% CI) of linear regression of carfilzomib clearance (l/h) as a function of creatinine clearance,[4],"−0.607 (−2.129, 0.914)"
same,CL,[4]; iv,110 L/h
same,median terminal half life (t1/2),[4]; iv,less than 60 min
